{"source": "paper PMC7188713", "about": "“Phase 1 study of napabucasin, a cancer stemness inhibitor, in patients with advanced solid tumors” (Cancer Chemotherapy and Pharmacology, 2020)", "key": {"advanced cancer": {"system": "advanced cancer", "conditions": "cited from earlier work"}, "prostate cancer cell": {"system": "prostate cancer cell", "parameters": "method as in PMID 26899963", "conditions": "in vitro; cited from earlier work"}, "colorectal cancer": {"system": "colorectal cancer", "parameters": "method as in PMID 29397354", "conditions": "cited from earlier work"}, "[1]": {"experiment": "Phase 1 dose-escalation study: safety (DLT, MTD, adverse events)", "type": "in vivo", "protocol": "This Phase 1, open-label, dose-escalation study (3 + 3 design) was carried out at the National Cancer Center Hospital East in Japan. Patients received napabucasin 240 mg twice daily (BID) (Cohort 1), 480 mg BID (Cohort 2), or 720 mg BID (Cohort 3). Day 1 was defined as the day the first dose of napabucasin was administered. All patients were hospitalized until PK assessments were completed (Day 30), though patients were permitted to go/stay out during this period at the discretion of the investigators. […] Dose escalation would continue if no DLTs were observed, and if one of the first three patients experienced a DLT within the first cycle an additional three patients would be enrolled. Dose escalation would be halted if ≥ 2 of the first three patients (or ≥ 2 of the six patients, if additional patients were enrolled) experienced a DLT. If ≤ 1 of the patients in Cohort 3 (highest dose) experienced an observable DLT, then three additional patients were enrolled and would receive the highest dose level of napabucasin, and DLTs would be evaluated in the additional patients. Study treatment was given in 28-day cycles until disease progression or intolerable toxicity due to AEs.\nSafety endpoints included AEs, drug-related AEs, vital signs, body weight, laboratory values, and 12-lead ECG. All details of AEs were recorded, including the severity of the event. The severity of AEs was classified according to CTCAE v4.0-JCOG. Napabucasin dose could be reduced or interrupted due to AEs if considered necessary by the investigators, and later reinstated if the AE recovered to Grade 2 or lower. It could also be permanently discontinued in patients who met the discontinuation criteria, which included AEs that rendered trial continuation difficult, aggravation of underlying disease, and withdrawal of consent. Body weight was measured at baseline and Day 29 of Cycle 2, and every 28 days in subsequent cycles. Vital signs were measured at baseline, Days 1, 2, 8, 15, and 22 of Cycle 1, Days 29, 36, 43, and 50 of Cycle 2, and every 28 days in subsequent cycles. 12-lead ECG was measured at baseline and Day 57 in Cycle 3, and every 28 days in subsequent cycles. Laboratory values were recorded at baseline, Days 8, 15, and 22 in Cycle 1, Days 29, 36, 43, and 50 in Cycle 2, and every 28 days in subsequent cycles.\nThe safety and antitumor activity (intention-to-treat [ITT]) analysis populations included all patients that received at least one dose of napabucasin. The DLT analysis population included all patients that received at least one dose of napabucasin with at least 80% compliance ([number of capsules actually ingested/number of capsules that should have been ingested per dose […]] × 100) during the DLT evaluation period, and those patients who experienced DLT during the evaluation period regardless of compliance. The PK population included all patients that received at least one dose of napabucasin and had plasma napabucasin concentration data for at least one-time point after the first dose of napabucasin."}, "[2]": {"parameters": "method as in doi:10.1200/JCO.2018.36.15_suppl.4110, doi:10.1200/JCO.2017.35.4_suppl.593", "conditions": "napabucasin 240 mg BID in combination with standard treatment; cited from earlier work"}, "CSCs": {"system": "CSCs", "parameters": "method as in PMID 25605917", "conditions": "cited from earlier work"}, "[3]": {"conditions": "all grades, all cohorts, 14 patients"}}}
{"smiles": "CC(=O)c1cc2c(o1)C(=O)c1ccccc1C2=O", "note": "[napabucasin]", "values": [{"measurement": "Dose up to which napabucasin was well tolerated", "setting": "advanced cancer; 14 cohorts, N = 41", "result": "up to 2000 mg/day"}, {"measurement": "Patients with SD as the best response", "setting": "advanced cancer; Phase 1 dose-escalation study", "result": 65, "unit": "%"}, {"measurement": "Effect on prostate cancer cells", "setting": "prostate cancer cell", "result": "inhibited prostate cancer cell survival, motility, and tumorigenesis in vitro"}, {"measurement": "Patients who achieved SD", "setting": "colorectal cancer", "result": 12, "unit": "%"}, {"measurement": "MTD (maximum tolerated dose)", "setting": "[1]; 28-day cycles, BID dosing", "result": 1440, "unit": "mg/day"}, {"measurement": "Any drug-related adverse event, Grade 1", "setting": "[1]; Cohort 1, 480 mg/day, n = 3", "result": "1 (33.3) Number of patients (%)"}, {"measurement": "Drug-related abdominal pain lower (Grade 1)", "setting": "[1]; Cohort 1, 480 mg/day, n = 3", "result": "0 (0.0) Number of patients (%)"}, {"measurement": "Drug-related anorexia, Grade 1", "setting": "[1]; Cohort 1, 480 mg/day, n = 3", "result": "1 (33.3) Number of patients (%)"}, {"measurement": "Drug-related anorexia, Grade 2", "setting": "[1]; Cohort 1, 480 mg/day, n = 3", "result": "0 (0.0) Number of patients (%)"}, {"measurement": "Drug-related anorexia, Grade 3", "setting": "[1]; Cohort 1, 480 mg/day, n = 3", "result": "0 (0.0) Number of patients (%)"}, {"measurement": "Drug-related diarrhea, Grade 1", "setting": "[1]; Cohort 1, 480 mg/day, n = 3", "result": "1 (33.3) Number of patients (%)"}, {"measurement": "Drug-related nausea (Grade 1)", "setting": "[1]; Cohort 1, 480 mg/day, n = 3", "result": "0 (0.0) Number of patients (%)"}, {"measurement": "Drug-related rash (Grade 1)", "setting": "[1]; Cohort 1, 480 mg/day, n = 3", "result": "0 (0.0) Number of patients (%)"}, {"measurement": "Drug-related urinary tract infection (Grade 1)", "setting": "[1]; Cohort 1, 480 mg/day, n = 3", "result": "0 (0.0) Number of patients (%)"}, {"measurement": "Any drug-related adverse event, Grade 1", "setting": "[1]; Cohort 2, 960 mg/day, n = 4", "result": "4 (100) Number of patients (%)"}, {"measurement": "Drug-related abdominal pain lower (Grade 1)", "setting": "[1]; Cohort 2, 960 mg/day, n = 4", "result": "1 (25.0) Number of patients (%)"}, {"measurement": "Drug-related anorexia, Grade 1", "setting": "[1]; Cohort 2, 960 mg/day, n = 4", "result": "0 (0.0) Number of patients (%)"}, {"measurement": "Drug-related anorexia, Grade 2", "setting": "[1]; Cohort 2, 960 mg/day, n = 4", "result": "0 (0.0) Number of patients (%)"}, {"measurement": "Drug-related anorexia, Grade 3", "setting": "[1]; Cohort 2, 960 mg/day, n = 4", "result": "0 (0.0) Number of patients (%)"}, {"measurement": "Drug-related diarrhea, Grade 1", "setting": "[1]; Cohort 2, 960 mg/day, n = 4", "result": "3 (75.0) Number of patients (%)"}, {"measurement": "Drug-related nausea (Grade 1)", "setting": "[1]; Cohort 2, 960 mg/day, n = 4", "result": "0 (0.0) Number of patients (%)"}, {"measurement": "Drug-related rash (Grade 1)", "setting": "[1]; Cohort 2, 960 mg/day, n = 4", "result": "1 (25.0) Number of patients (%)"}, {"measurement": "Drug-related urinary tract infection (Grade 1)", "setting": "[1]; Cohort 2, 960 mg/day, n = 4", "result": "1 (25.0) Number of patients (%)"}, {"measurement": "Any drug-related adverse event, Grade 1", "setting": "[1]; Cohort 3, 1440 mg/day, n = 7", "result": "4 (57.1) Number of patients (%)"}, {"measurement": "Any drug-related adverse event, Grade 2", "setting": "[1]; Cohort 3, 1440 mg/day, n = 7", "result": "1 (14.3) Number of patients (%)"}, {"measurement": "Any drug-related adverse event, Grade 3", "setting": "[1]; Cohort 3, 1440 mg/day, n = 7", "result": "1 (14.3) Number of patients (%)"}, {"measurement": "Drug-related abdominal pain lower (Grade 1)", "setting": "[1]; Cohort 3, 1440 mg/day, n = 7", "result": "0 (0.0) Number of patients (%)"}, {"measurement": "Drug-related anorexia, Grade 1", "setting": "[1]; Cohort 3, 1440 mg/day, n = 7", "result": "0 (0.0) Number of patients (%)"}, {"measurement": "Drug-related anorexia, Grade 2", "setting": "[1]; Cohort 3, 1440 mg/day, n = 7", "result": "1 (14.3) Number of patients (%)"}, {"measurement": "Drug-related anorexia, Grade 3", "setting": "[1]; Cohort 3, 1440 mg/day, n = 7", "result": "1 (14.3) Number of patients (%)"}, {"measurement": "Drug-related diarrhea, Grade 1", "setting": "[1]; Cohort 3, 1440 mg/day, n = 7", "result": "4 (57.1) Number of patients (%)"}, {"measurement": "Drug-related diarrhea, Grade 3", "setting": "[1]; Cohort 3, 1440 mg/day, n = 7", "result": "1 (14.3) Number of patients (%)"}, {"measurement": "Drug-related nausea (Grade 1)", "setting": "[1]; Cohort 3, 1440 mg/day, n = 7", "result": "4 (57.1) Number of patients (%)"}, {"measurement": "Drug-related rash (Grade 1)", "setting": "[1]; Cohort 3, 1440 mg/day, n = 7", "result": "0 (0.0) Number of patients (%)"}, {"measurement": "Drug-related urinary tract infection (Grade 1)", "setting": "[1]; Cohort 3, 1440 mg/day, n = 7", "result": "0 (0.0) Number of patients (%)"}, {"measurement": "Initial onset of nausea, most frequently observed", "setting": "[1]; after the first dose", "result": "1 to 14", "unit": "days"}, {"measurement": "Drug-related nausea, number of patients", "setting": "[1]; all cohorts, 14 patients", "result": 4, "unit": "n"}, {"measurement": "Drug-related vomiting, number of patients", "setting": "[1]; all cohorts, 14 patients", "result": 3, "unit": "n"}, {"measurement": "Drug-related anorexia, number of patients", "setting": "[1]; [3]", "result": 3, "unit": "n"}, {"measurement": "Drug-related diarrhea, number of patients", "setting": "[1]; [3]", "result": 9, "unit": "n"}, {"measurement": "Any drug-related adverse event, Grade 1", "setting": "[1]; human, in vivo", "result": "9 (64.3) Number of patients (%)"}, {"measurement": "Any drug-related adverse event, Grade 2", "setting": "[1]; human, in vivo", "result": "1 (7.1) Number of patients (%)"}, {"measurement": "Any drug-related adverse event, Grade 3", "setting": "[1]; human, in vivo", "result": "1 (7.1) Number of patients (%)"}, {"measurement": "Drug-related abdominal pain lower (Grade 1)", "setting": "[1]; human, in vivo", "result": "1 (7.1) Number of patients (%)"}, {"measurement": "Drug-related anorexia, Grade 1", "setting": "[1]; human, in vivo", "result": "1 (7.1) Number of patients (%)"}, {"measurement": "Drug-related anorexia, Grade 2", "setting": "[1]; human, in vivo", "result": "1 (7.1) Number of patients (%)"}, {"measurement": "Drug-related anorexia, Grade 3", "setting": "[1]; human, in vivo", "result": "1 (7.1) Number of patients (%)"}, {"measurement": "Drug-related diarrhea, Grade 1", "setting": "[1]; human, in vivo", "result": "8 (57.1) Number of patients (%)"}, {"measurement": "Drug-related diarrhea, Grade 3", "setting": "[1]; human, in vivo", "result": "1 (7.1) Number of patients (%)"}, {"measurement": "Drug-related nausea (Grade 1)", "setting": "[1]; human, in vivo", "result": "4 (28.6) Number of patients (%)"}, {"measurement": "Drug-related rash (Grade 1)", "setting": "[1]; human, in vivo", "result": "1 (7.1) Number of patients (%)"}, {"measurement": "Drug-related urinary tract infection (Grade 1)", "setting": "[1]; human, in vivo", "result": "1 (7.1) Number of patients (%)"}, {"measurement": "Drug-related vomiting (Grade 1)", "setting": "[1]; human, in vivo", "result": "3 (21.4) Number of patients (%)"}, {"measurement": "Initial onset of diarrhea and vomiting, most frequently observed", "setting": "[1]; human, in vivo", "result": "1 to 7", "unit": "days"}, {"measurement": "Patients who experienced drug-related AEs", "setting": "[1]; human, in vivo", "result": 11, "unit": "patients"}, {"measurement": "Patients with AEs reported", "setting": "[1]; human, in vivo", "result": 14, "unit": "patients"}, {"measurement": "Dose reductions due to AEs", "setting": "[1]; in vivo", "result": "no dose reductions due to AEs"}, {"measurement": "Patients with dose interruptions due to AEs", "setting": "[1]; in vivo", "result": "five"}, {"measurement": "Deaths due to AEs", "setting": "[1]; n = 14", "result": "No patients died due to AEs"}, {"measurement": "DLTs", "setting": "[2]", "result": "no DLTs"}, {"measurement": "Selectivity for CSCs", "setting": "CSCs", "result": "selectively targets CSCs, leaving normal hematopoietic stem cells unaffected"}]}
